Source: publication PMC11240139, “Exploring the antitumor potential of novel quinoline derivatives via tubulin polymerization inhibition in breast cancer; design, synthesis and molecular docking” (RSC Advances, 2024)

Assays:
Experiment in all cases: NCI-60 SRB cytotoxicity screen
Assay type in all cases: cell-based
[1] = system: NCI-H460 (non-small cell lung cancer)
[2] = system: CAKI-1 (renal cancer)
[3] = system: EKVX (non-small cell lung cancer)
[4] = system: PC-3 (prostate cancer)
[5] = system: OVCAR-4 (ovarian cancer)
[6] = system: NCI-H322M (non-small cell lung cancer)
[7] = system: MOLT-4 (leukemia)
[8] = system: M14 (melanoma)
[9] = system: SK-OV-3 (ovarian cancer)
[10] = system: HOP-92 (non-small cell lung cancer)
[11] = system: MDA-MB-435 (melanoma)
[12] = system: MALME-3M (melanoma)
[13] = system: CCRF-CEM (leukemia)
[14] = system: MDA-MB-231/ATCC (breast cancer)
[15] = system: UACC-257 (melanoma)
[16] = system: OVCAR-5 (ovarian cancer)
[17] = system: 786-0 (renal cancer)
[18] = system: NCI-H226 (non-small cell lung cancer); conditions: Homo sapiens
[19] = Homo sapiens, NCI-H460, five-dose assay
[20] = Homo sapiens, five-dose assay, read-out: LC50 (the source's name)
[21] = Homo sapiens, single dose 10 μM, read-out: growth inhibition (GI%)
[22] = Homo sapiens, M14, five-dose assay
[23] = Homo sapiens, HOP-92, five-dose assay
[24] = Homo sapiens, UACC-257, five-dose assay

CCc1cccc2cc(-c3cc(-c4cc(OC)c(OC)c(OC)c4)[nH]c(=O)c3C#N)c(Cl)nc12 [Compound 4c, 4-(2-Chloro-8-ethylquinolin-3-yl)-2-oxo-6-(3,4,5-trimethoxyphenyl)-1,2-dihydropyridine-3-carbonitrile]
GI50 [1, 19]: 16.1 µM | LC50 (50% lethal concentration) [1, 19]: > 100 µM | inhibition at 10 µM ([1]; Homo sapiens, NCI-H460, single dose 10 μM, read-out: growth inhibition (GI%)): 58.6% | TGI ([1]; NCI-H460, five-dose assay): 41.80 µM | TGI ([2]; CAKI-1, five-dose assay): 22.90 µM | GI50 ([2]; Homo sapiens, CAKI-1, five-dose assay): 10.7 µM | CC50 ([2]; Homo sapiens, CAKI-1, five-dose assay, read-out: LC50 (the source's name)): 49.2 µM | inhibition at 10 µM ([2]; Homo sapiens, CAKI-1, single dose 10 μM, read-out: growth inhibition (GI%)): 95.1% | GI50 ([3]; Homo sapiens, five-dose assay): 28.6 µM | CC50 [3, 20]: > 100 µM | inhibition at 10 µM [3, 21]: 50.1% | TGI ([3]; five-dose assay): >100 µM | GI50 ([4]; PC-3, five-dose assay): 40.3 µM | TGI ([4]; PC-3, five-dose assay): >100 µM | CC50 ([4]; PC-3, five-dose assay, read-out: LC50 (the source's name)): > 100 µM | inhibition at 10 µM ([4]; PC-3, single dose 10 μM, read-out: growth inhibition (GI%)): 67.6% | GI50 ([5]; Homo sapiens, OVCAR-4, five-dose assay): 17.2 µM | CC50 ([5]; Homo sapiens, OVCAR-4, five-dose assay, read-out: LC50 (the source's name)): > 100 µM | inhibition at 10 µM ([5]; Homo sapiens, OVCAR-4, single dose 10 μM, read-out: growth inhibition (GI%)): > 100% | TGI ([5]; OVCAR-4, five-dose assay): >100 µM | growth inhibition (GI%) ([5]; OVCAR-4, single dose 10 μM): lethal effect | GI50 ([6]; Homo sapiens, five-dose assay): 10.5 µM | LC50 (concentration causing 50% net cell kill) ([6]; Homo sapiens, five-dose assay): > 100 µM | inhibition at 10 µM [6, 21]: 53.7% | TGI ([6]; five-dose assay): >100 µM | GI50 ([7]; Homo sapiens, MOLT-4, five-dose assay): 8.17 µM | CC50 ([7]; Homo sapiens, MOLT-4, five-dose assay, read-out: LC50 (the source's name)): > 100 µM | inhibition at 10 µM ([7]; Homo sapiens, MOLT-4, single dose 10 μM, read-out: growth inhibition (GI%)): 76.4% | TGI ([7]; MOLT-4, five-dose assay): 79.90 µM | GI50 [8, 22]: 29.7 µM | LC50 [8, 22]: > 100 µM | inhibition at 10 µM ([8]; Homo sapiens, M14, single dose 10 μM, read-out: growth inhibition (GI%)): 42.8% | TGI ([8]; M14, five-dose assay): >100 µM | GI50 ([9]; Homo sapiens, SK-OV-3, five-dose assay): 26 µM | CC50 ([9]; Homo sapiens, SK-OV-3, five-dose assay, read-out: LC50 (the source's name)): > 100 µM | inhibition at 10 µM ([9]; Homo sapiens, SK-OV-3, single dose 10 μM, read-out: growth inhibition (GI%)): 61.4% | TGI ([9]; SK-OV-3, five-dose assay): >100 µM | TGI ([10]; HOP-92, five-dose assay): 9.68 µM | growth inhibition (GI%) ([10]; HOP-92, single dose 10 μM): lethal effect | GI50 [10, 23]: 2.37 µM | LC50 (lethal concentration 50) [10, 23]: > 100 µM | inhibition at 10 µM ([10]; Homo sapiens, HOP-92, single dose 10 μM, read-out: growth inhibition (GI%)): > 100% | GI50 ([11]; Homo sapiens, MDA-MB-435): 32.6 µM | inhibition at 10 µM ([11]; Homo sapiens, MDA-MB-435, read-out: growth inhibition (GI%)): 56.5% | LC50 (lethal concentration, 50% net cell kill) ([11]; Homo sapiens, MDA-MB-435, five-dose assay): > 100 µM | TGI ([11]; MDA-MB-435, five-dose assay): >100 µM | GI50 ([12]; Homo sapiens, five-dose assay): 10.1 µM | CC50 [12, 20]: > 100 µM | inhibition at 10 µM [12, 21]: 89.4% | TGI ([12]; five-dose assay): 40.00 µM | GI50 ([13]; Homo sapiens, five-dose assay): 12 µM | LC50 ([13]; Homo sapiens, five-dose assay): > 100 µM | inhibition at 10 µM [13, 21]: 80.4% | TGI ([13]; five-dose assay): >100 µM | GI50 ([14]; Homo sapiens, MDA-MB-231): 14.5 µM | inhibition at 10 µM ([14]; Homo sapiens, MDA-MB-231, read-out: growth inhibition (GI%)): > 100% | CC50 ([14]; Homo sapiens, MDA-MB-231/ATCC, five-dose assay, read-out: LC50 (the source's name)): 69.8 µM | TGI ([14]; MDA-MB-231/ATCC, five-dose assay): 31.80 µM | growth inhibition (GI%) ([14]; MDA-MB-231/ATCC, single dose 10 μM): lethal effect | GI50 [15, 24]: 42.6 µM | LC50 [15, 24]: > 100 µM | inhibition at 10 µM ([15]; Homo sapiens, UACC-257, single dose 10 μM, read-out: growth inhibition (GI%)): 26.5% | TGI ([15]; UACC-257, five-dose assay): >100 µM | GI50 ([16]; Homo sapiens, OVCAR-5, five-dose assay): 48.4 µM | CC50 ([16]; Homo sapiens, OVCAR-5, five-dose assay, read-out: LC50 (the source's name)): > 100 µM | inhibition at 10 µM ([16]; Homo sapiens, OVCAR-5, single dose 10 μM, read-out: growth inhibition (GI%)): 33.3% | TGI ([16]; OVCAR-5, five-dose assay): >100 µM | TGI ([17]; 786-0, five-dose assay): 26.70 µM | growth inhibition (GI%) ([17]; 786-0, single dose 10 μM): lethal effect | GI50 ([17]; Homo sapiens, 786-0, five-dose assay): 11.7 µM | CC50 ([17]; Homo sapiens, 786-0, five-dose assay, read-out: LC50 (the source's name)): 61.1 µM | inhibition at 10 µM ([17]; Homo sapiens, 786-0, single dose 10 μM, read-out: growth inhibition (GI%)): > 100% | GI50 ([18]; NCI-H226, five-dose assay): 10.9 µM | LC50 (lethal concentration, 50% cell kill) ([18]; NCI-H226, five-dose assay): 97.7 µM | inhibition at 10 µM ([18]; NCI-H226, single dose 10 μM, read-out: growth inhibition (GI%)): > 100%
